Test results as given in the NIST ThermoML archive (doi:10.1016/j.jct.2016.12.037).
Numbers after ± are expanded uncertainties.

Experiments:
[1] = 100 kPa, Liquid; for viscosity: Concentric cylinders viscometry; for mass density: Vibrating tube method
[2] = xn = mol fraction of the nth substance listed; settings: 100 kPa, Liquid, x1 = 1; for viscosity: Concentric cylinders viscometry; for mass density: Vibrating tube method

CCCCn1cc[n+](C)c1.[Cl-] [1-butyl-3-methylimidazolium chloride]
[1]
Settings | mass density [kg/m3] | viscosity [mPa·s]
348.15 K | 1053.9 ± 2.5 | 217 ± 11
353.15 K | 1051.2 ± 2.5 | 162.1 ± 8
358.15 K | 1048.5 ± 2.5 | 123.3 ± 6
363.15 K | 1045.9 ± 2.5 | 95.6 ± 4.6
368.15 K | 1043.3 ± 2.5 | 75.39 ± 3.6
373.15 K | 1040.8 ± 2.5 | 60.26 ± 2.9

CCCCn1cc[n+](C)c1.[Cl-] [1-butyl-3-methylimidazolium chloride] + CCCC[n+]1ccn(C)c1.O=S(=O)([N-]S(=O)(=O)C(F)(F)F)C(F)(F)F
[2]
Settings | mass density [kg/m3] | viscosity [mPa·s]
348.15 K | 1053.9 ± 2.5 | 217 ± 11
353.15 K | 1051.2 ± 2.5 | 162.1 ± 8
358.15 K | 1048.5 ± 2.5 | 123.3 ± 6
363.15 K | 1045.9 ± 2.5 | 95.6 ± 4.6
368.15 K | 1043.3 ± 2.5 | 75.39 ± 3.6
373.15 K | 1040.8 ± 2.5 | 60.26 ± 2.9
